Results published in publication PMC11555231 (Nature Communications, 2024).
Bridge positions count the residues as written; N and C are the ends. Square brackets hold non-standard residues; d marks the D form. Peptide text beside a SMILES is read from it.

Legend:
Bio-hPADI4 wt = molecular target: T1, Bio-hPADI4 wt (Homo sapiens, UniProt Q9UM07); experiment: Surface plasmon resonance (SPR), single cycle kinetics, peptide binding to immobilised PADI4; conditions: Fig. 5D, mean ± SEM of three independent repeats, read-out: KD (µM) of PADI4_11 analogues
T1 construct: PADI4 (residues 1–663); Avi-Tag (biotinylated by BirA); made in house; host or cells: E. coli BL21-DE3 co-expressing BirA

human neutrophils [1] = experiment: Ca-ionophore stimulated neutrophils, citrullinated H3 immunostaining and confocal microscopy / immunoblot; type: cell-based; conditions: sheet Figure_3G, Ca-I + peptide
Experimental: (§1) Peripheral venous blood was isolated from consenting healthy adult volunteers in heparin tubes as previously described. Briefly, blood samples were on Histopaque 1119 (Sigma-Aldrich) and then centrifuged for 20 min at 800 × g. The plasma was collected and centrifuged for a second time for 20 min at 800 × g. The neutrophil layer was collected and washed in Hyclone Hank’s Balanced Salt Solution (HBSS) -Ca, -Mg, -Phenol red (GE Healthcare) supplemented with 10 mM HEPES (Invitrogen) 0.1% FBS and further purified with a discontinuous Percoll (GE Healthcare) gradient consisting of layers with densities of 85, 80, 75, 70 and 65% and centrifuged for 20 min at 800 × g. Neutrophil-enriched layers were then collected and washed, and neutrophil purity was assessed using flow cytometry.
About 5 × 10^4 sorted neutrophils were seeded in 24-well cell culture plates containing glass coverslips in HyClone HBSS +Ca, +Mg, - Phenol red (GE Healthcare) supplemented with 10 mM HEPES (Invitrogen). Neutrophils were stimulated with 5 µM Ca-Ionophore (Sigma) and fixed for 20 min at room temperature with 2% paraformaldehyde at RT. Cells were then washed and permeabilized with 0.5% Triton X-100 in PBS. Non-specific binding was blocked with 2% BSA (Sigma) and 2% donkey serum (Sigma) in PBS. Samples were stained with DAPI (Life Technologies), the rabbit anti-CitH3 (Abcam; ab5103 1:500) and donkey anti-rabbit alexa488 (Invitrogen; A21206). Fluorescence imaging was performed on a Leica TCS SP8 inverted confocal microscope using sequential scan in between frames mode with a 20x objective.
Neutrophil samples were boiled in a sodium dodecyl sulphate (SDS) buffer containing dithiothreitol (DTT) and run on a polyacrylamide gel electrophoresis (SDS-PAGE) using Criterion TGX precast gels (Any-KD; Bio-Rad Laboratories). Proteins were then transferred to a PVDF membrane (Bio-Rad Laboratories) via semi-dry transfer. The membrane was blocked with 5% BSA (Fisher Scientific) in Tris-buffered saline with 0.1% Tween-20 (TBS-T). Levels of citrullinated histone H3, total H3 and myeloperoxidase (MPO) were assessed by incubating membranes in either anti-histone H3 citrulline R2 + R8 + R17 (Abcam; ab5103 1:1000), anti-histone H3 (Millipore; 07-690 1:10000) or anti-MPO (DAKO; A0398 1:2500) overnight at 4 °C, respectively. For cell lysate-based assays and pull-down assays, membranes were incubated as above with anti-hPADI4 (Abcam; ab50332; 1:1000 in 5% BSA/TBS-T), anti-Bcr (Cell Signalling #3902S; 1:1000 in 3% milk/TBS-T) and anti-Impdh2 (Cell Signalling #57068S; 1:1000 in 3% milk/TBS-T). Membranes were washed in 0.1% TBS-T and subsequently incubated with goat anti-rabbit HRP or anti-goat (Fisher Scientific) for 1 h, followed by final washes in 0.1% TBS-T. Membranes were imaged with enhanced chemiluminescent substrate (ECL) (Thermo Fisher) on a Bio-Rad imager.

hPADI4 = molecular target: T2, hPADI4 (Homo sapiens, UniProt Q9UM07); experiment: COLDER assay, inhibition of PADI4 at 10 mM CaCl2 (substrate BAEE); type: biochemical; conditions: COLDER inhibition assay; mean of the 3 experiments printed beside it (stdev in a separate column); read-out: IC50
T2 construct: PADI4 (residues 1–663); Avi-Tag (unbiotinylated); made in house; host or cells: E. coli BL21(DE3) without BirA
Experimental: PADI4 activity was assessed using the COLDER assay[43] that measures the formation of urea-containing compounds (e.g. citrulline). The reaction was carried out in a 96-well plate with a final volume of 50 µl. His-PADI4 (50 nM) was incubated with different concentrations of peptides (100 µM to 0.3 nM) in the presence of CaCl2 (from 10 mM to 0.001 mM as specified) for 10 min. The reaction was started by the addition of 10 mM N^α-Benzoyl-L-arginine ethyl ester hydrochloride (BAEE, Merck). After 30 min, the reaction was quenched with EDTA (50 mM final concentration). For colour development, 200 µl of COLDER solution, consisting of 1 volume of solution A (80 mM diacetyl monoxime/2,3-butanedione monoxime (Merck) and 2 mM thiosemicarbazide (Acros Organics)) and 3 volumes of solution B (3 M H3PO4, 6 M H2SO4 and 2 mM NH4Fe(SO4)2) were added to each well and the mixture was heated at 95 °C for 15 min. After cooling to RT, absorbance at 540 nm was measured, and citrulline concentration was determined using a standard curve of citrulline standards. All studies were performed within the linear range of PADI4 activity, and data analysis was performed using Prism GraphPad (Dotmatics). Data are presented as the average ± standard error of the mean from at least two independent replicates.

human neutrophils [2] = experiment: Time-lapse imaging and NET quantification (NETosis); type: cell-based
Experimental: as §1
About 5 × 10^4 human neutrophils were seeded in a black 96-well plate (PerkinElmer) in HyClone HBSS +Ca, +Mg, - Phenol red (GE Healthcare) containing 10 mM HEPES (Invitrogen). Cells were pre-incubated with the corresponding peptide for 60 min prior to the start of the experiment. DNA of live cells was stained with 4 µg/mL Hoechst (membrane permeable; Thermo Scientific) and DNA from dead cells with 0.2 µM Sytox-green (membrane impermeable; Invitrogen). Cells were stimulated with 100 nM PMA, 5 µM Ca-Ionophore or 0.1 mg/mL cholesterol crystals at the start of the microscope acquisition. Plates stimulated with cholesterol crystals were centrifuged at 300×g for 5 min at RT immediately prior to microscope acquisition. The cells were imaged on an inverted Nikon wide-field microscope system at 37 °C and CO2 (5%). Four fields of view were acquired per well every 15 mins for 10–15 h using a 40x objective. NETs were differentiated from necrotic cells by the size of the sytox signal using FIJI[86]. […] [85]. Area measurements were distributed into bins of increasing area sizes and plotted as a percentage of the total number of Sytox-green positive (dead) cells.

T2 sequence (Q9UM07 whole entry, the tested form may be a part): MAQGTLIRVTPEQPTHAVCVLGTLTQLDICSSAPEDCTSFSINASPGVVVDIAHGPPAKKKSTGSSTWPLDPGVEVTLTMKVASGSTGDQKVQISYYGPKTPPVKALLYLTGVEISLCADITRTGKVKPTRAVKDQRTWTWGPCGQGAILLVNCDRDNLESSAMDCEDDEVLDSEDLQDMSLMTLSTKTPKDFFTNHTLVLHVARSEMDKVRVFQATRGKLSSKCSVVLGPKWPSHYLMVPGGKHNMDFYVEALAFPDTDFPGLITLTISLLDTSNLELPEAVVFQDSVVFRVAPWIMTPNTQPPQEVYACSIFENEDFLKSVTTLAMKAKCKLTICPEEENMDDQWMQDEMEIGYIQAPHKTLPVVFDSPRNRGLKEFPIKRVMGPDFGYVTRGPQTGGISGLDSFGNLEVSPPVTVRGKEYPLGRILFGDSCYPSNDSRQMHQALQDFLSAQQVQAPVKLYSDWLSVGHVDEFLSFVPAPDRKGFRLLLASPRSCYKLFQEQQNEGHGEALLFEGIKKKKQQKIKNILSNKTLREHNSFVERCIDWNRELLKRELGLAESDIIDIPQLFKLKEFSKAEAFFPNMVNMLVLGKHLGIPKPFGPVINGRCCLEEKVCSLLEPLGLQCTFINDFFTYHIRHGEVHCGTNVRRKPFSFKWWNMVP
T1 sequence (Q9UM07 whole entry, the tested form may be a part): as above

**Q.** `CC(C)C[C@H](NC(=O)[C@H](CCC(N)=O)NC(=O)[C@H](CC(C)C)NC(=O)[C@@H](NC(=O)[C@H](C)NC(=O)[C@H](CCCNC(=N)N)NC(=O)[C@H](Cc1ccc(O)cc1)NC(=O)[C@H](CCCNC(=N)N)NC(=O)[C@@H]1CSCC(=O)N[C@@H](Cc2ccc(O)cc2)C(=O)N[C@@H](CCC(=O)O)C(=O)N[C@@H](CO)C(=O)N1)C(C)C)C(N)=O` [Q8A] ({CH2CO}-YESCRYRAVLQL-NH2; thioether N-4) was tested. Which Kd (Bio-hPADI4 wt) did it give?
**A.** 0.5 ± 0.3 µM

**Q.** Which results are given for `N=C(N)NCCC[C@@H]1NC(=O)[C@H](CC(=O)O)NC(=O)[C@@H](Cc2ccc(O)cc2)NC(=O)CSC[C@@H](C(=O)NCC(N)=O)NC(=O)[C@H](Cc2ccc(O)cc2)NC(=O)[C@H](CCCCN)NC(=O)[C@@H]2CCCN2C(=O)[C@H](Cc2c[nH]cn2)NC(=O)[C@H](CCCNC(=N)N)NC(=O)[C@H](Cc2ccc(O)cc2)NC(=O)[C@H](Cc2c[nH]cn2)NC(=O)[C@H](Cc2c[nH]cn2)NC1=O` [PADI4-3i] ({CH2CO}-[dY]DRHHYRHPKYCG-NH2; thioether N-12)?
**A.** Figure 3G quantification in Ca-I stimulated neutrophils (citrullinated H3 immunostaining) (human neutrophils [1]; replicate 1 (first data row)): 33.3333; Figure 3G quantification in Ca-I stimulated neutrophils (citrullinated H3 immunostaining) (human neutrophils [1]; replicate 2 (second data row)): 50; Figure 3G quantification in Ca-I stimulated neutrophils (citrullinated H3 immunostaining) (human neutrophils [1]; replicate 3 (third data row)): 41.6667; Figure 3G quantification in Ca-I stimulated neutrophils (citrullinated H3 immunostaining) (human neutrophils [1]; replicate 4 (fourth data row)): 50

**Q.** For `N=C(N)NCCC[C@@H]1NC(=O)[C@@H](Cc2ccc(O)cc2)NC(=O)CSC[C@@H](C(=O)NCC(N)=O)NC(=O)[C@H](Cc2ccc(O)cc2)NC(=O)[C@H](CCCCN)NC(=O)[C@@H]2CCCN2C(=O)[C@H](Cc2c[nH]cn2)NC(=O)[C@H](Cc2c[nH]c3ccccc23)NC(=O)[C@H](Cc2ccc(O)cc2)NC(=O)[C@H](Cc2c[nH]cn2)NC(=O)[C@H](Cc2c[nH]cn2)NC(=O)[C@H](CC(=O)O)NC1=O` [PADI4_3.20] ({CH2CO}-[dY]RDHHYWHPKYCG-NH2; thioether N-12), which IC50 (hPADI4) is on record?
**A.** 79.1 nM

**Q.** With `N=C(N)NCCC[C@@H]1NC(=O)[C@H](CC(=O)O)NC(=O)[C@@H](Cc2ccc(O)cc2)NC(=O)CSC[C@@H](C(=O)NCC(N)=O)NC(=O)[C@H](Cc2ccc(O)cc2)NC(=O)[C@H](CCCCN)NC(=O)[C@@H]2CCCN2C(=O)[C@H](Cc2c[nH]cn2)NC(=O)[C@H](CCCNC(=N)N)NC(=O)[C@H](Cc2ccc(O)cc2)NC(=O)[C@H](Cc2c[nH]cn2)NC(=O)[C@H](Cc2c[nH]cn2)NC1=O` [PAD4-3inv] ({CH2CO}-[dY]DRHHYRHPKYCG-NH2; thioether N-12) as the compound, how does the “share per DNA area bin” value (human neutrophils [2]; DNA area (μm) 150, replicate 1) read?
**A.** 64

**Q.** And the “share per DNA area bin” value (human neutrophils [2]; DNA area (μm) 150, replicate 2)?
**A.** 52.1739

**Q.** And the “share per DNA area bin” value (human neutrophils [2]; DNA area (μm) 150, replicate 3)?
**A.** 52.1739

**Q.** And the “share per DNA area bin” value (human neutrophils [2]; DNA area (μm) 150, replicate 4)?
**A.** 45.1613

**Q.** And the “share per DNA area bin” value (human neutrophils [2]; DNA area (μm) 250, replicate 1)?
**A.** 20

**Q.** What about the “share per DNA area bin” value (human neutrophils [2]; DNA area (μm) 250, replicate 2) of the same compound?
**A.** 0

**Q.** What about the “share per DNA area bin” value (human neutrophils [2]; DNA area (μm) 250, replicate 3) of the same compound?
**A.** 17.3913

**Q.** What about the “share per DNA area bin” value (human neutrophils [2]; DNA area (μm) 250, replicate 4) of the same compound?
**A.** 22.5806

**Q.** What about the “share per DNA area bin” value (human neutrophils [2]; DNA area (μm) 750, replicate 1) of the same compound?
**A.** 16

**Q.** What about the “share per DNA area bin” value (human neutrophils [2]; DNA area (μm) 750, replicate 2) of the same compound?
**A.** 47.8261

**Q.** What about the “share per DNA area bin” value (human neutrophils [2]; DNA area (μm) 750, replicate 3) of the same compound?
**A.** 30.4348

**Q.** And the “share per DNA area bin” value (human neutrophils [2]; DNA area (μm) 750, replicate 4)?
**A.** 29.0323

**Q.** What about the “share per DNA area bin” value (human neutrophils [2]; DNA area (μm) 1500, replicate 1) of the same compound?
**A.** 0

**Q.** And the “share per DNA area bin” value (human neutrophils [2]; DNA area (μm) 1500, replicate 2)?
**A.** 0

**Q.** What about the “share per DNA area bin” value (human neutrophils [2]; DNA area (μm) 1500, replicate 4) of the same compound?
**A.** 3.2258
